From ChEMBL document CHEMBL1201862, “PubChem BioAssay data set” (2004)
Activity calls are given as the source filed them.

Columns and labels:
[1] = molecular target: Protein-tyrosine kinase 2-beta (Homo sapiens, UniProt Q14289);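 note: potency of inhibitors of PYK2 kinase phosphorylation of poly-GT substrate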
[2] = molecular target: T1, Trace amine-associated receptor 1 (Homo sapiens, UniProt Q96RJ0); test: Counterscreen for agonists of the human trace amine associated receptor 1 (hTAAR1): Fluorescence-based cell-based high throughput dose response assay to identify hTAAR1 agonist that also desensitize TAAR1 receptor response.; format: functional
T1 sequence (Q96RJ0 whole entry): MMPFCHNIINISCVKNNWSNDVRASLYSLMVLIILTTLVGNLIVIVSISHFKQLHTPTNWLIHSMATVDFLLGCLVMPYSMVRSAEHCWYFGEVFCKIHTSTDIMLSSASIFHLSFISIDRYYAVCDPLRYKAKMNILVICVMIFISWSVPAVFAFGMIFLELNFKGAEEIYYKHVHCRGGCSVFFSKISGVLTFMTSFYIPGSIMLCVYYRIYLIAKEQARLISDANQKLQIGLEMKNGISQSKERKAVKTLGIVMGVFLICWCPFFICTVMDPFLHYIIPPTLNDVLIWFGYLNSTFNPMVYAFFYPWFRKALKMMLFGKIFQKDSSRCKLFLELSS

[3] = molecular target: T1, Trace amine-associated receptor 1; test: Fluorescence-based cell-based high throughput dose response assay to identify agonists of the human trace amine associated receptor 1 (TAAR1).; format: functional
cells [4] = format: functional, cell-based
cells [5] = format: functional, cell-based; remark: listed apart in the source
[6] = OVCAR8 cell viability loss – plate reader, dry powder samples, PAX8 project, dose response (AID 743197); format: functional, cell-based; details: OVCAR-8
Paired box protein Pax-8 = Paired box protein Pax-8 (Homo sapiens, UniProt Q06710); test: PAX8 transcriptional activity inhibition in RMG-I – RMG-I cells, luciferase, cherry-pick, dose response (AID 687027); format: functional, cell-based;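 note: luciferase reporter driven by Pax8 target thyroperoxidase promoter measured by SteadyGlo luminescence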
[7] = OVCAR-3 cell viability loss – plate reader, dry powder samples, PAX8 inhibitor project, dose response (AID 743044); format: functional, cell-based
[8] = IGROV1 cell killing – plate reader, dry powder samples, PAX8 inhibitor project, dose response (AID 743043); format: functional, cell-based; details: IGROV-1
[9] = molecular target: Eukaryotic translation initiation factor 4E (Mus musculus, UniProt P63073); test: blockers of eIF4G binding by eIF4E – biochemical, TR-FRET, dose response (AID 855); format: functional;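 note: potency for disrupting eIF4E binding to eIF4GI seen as loss of FRET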
Sequence of Eukaryotic translation initiation factor 4E (P63073 whole entry): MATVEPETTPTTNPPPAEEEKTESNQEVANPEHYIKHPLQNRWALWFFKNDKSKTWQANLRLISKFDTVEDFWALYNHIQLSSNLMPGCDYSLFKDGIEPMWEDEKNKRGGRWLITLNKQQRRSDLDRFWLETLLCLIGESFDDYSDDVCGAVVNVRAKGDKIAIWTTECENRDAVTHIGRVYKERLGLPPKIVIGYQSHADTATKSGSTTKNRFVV

[10] = molecular target: T2, Long-chain-fatty-acid--AMP ligase FadD28 (Mycobacterium tuberculosis, UniProt P9WQ59); test: Fluorescence polarization aasay to screen for inhibitors that compete for the binding of FadD28 to a bisubstrate Measured in Biochemical System Using Plate Reader - 2147-01_Inhibitor_Dose_CherryPick_Activity.; format: functional, Mycobacterium tuberculosis H37Rv
T2 sequence (P9WQ59 whole entry): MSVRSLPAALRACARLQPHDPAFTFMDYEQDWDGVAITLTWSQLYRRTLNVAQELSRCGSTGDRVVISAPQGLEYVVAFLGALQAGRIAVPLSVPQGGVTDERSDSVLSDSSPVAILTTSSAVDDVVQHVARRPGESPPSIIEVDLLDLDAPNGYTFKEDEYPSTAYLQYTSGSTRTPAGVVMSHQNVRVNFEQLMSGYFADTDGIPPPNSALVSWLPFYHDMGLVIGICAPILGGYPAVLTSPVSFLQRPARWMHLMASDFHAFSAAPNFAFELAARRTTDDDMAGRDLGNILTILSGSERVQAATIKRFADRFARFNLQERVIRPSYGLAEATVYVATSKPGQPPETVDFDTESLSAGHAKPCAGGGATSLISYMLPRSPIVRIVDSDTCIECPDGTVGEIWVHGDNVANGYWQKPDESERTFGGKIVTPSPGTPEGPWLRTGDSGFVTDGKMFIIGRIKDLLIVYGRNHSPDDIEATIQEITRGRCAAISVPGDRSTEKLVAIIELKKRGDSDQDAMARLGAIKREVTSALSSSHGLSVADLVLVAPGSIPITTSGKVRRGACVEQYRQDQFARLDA

Streptococcus = test: GAS UMAA2166 growth inhibition – luminescence, BacTiterGlo, counter-screen for streptokinase expression inhibitor project, dose response (AID 1915); format: functional, organism-based;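 note: potency for reduction of bacterial viability or growth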
[11] = Vero E6 cell cytotoxicity, dose response, cytotoxicity control for non-replicating M. tuberculosis project, secondary assay (AID 492998); format: functional, VeroE6; details: Vero C1008
cells [12] = format: functional
[13] = THP-1 cell cytotoxicity, dose response, cytotoxicity control for non-replicating M. tuberculosis project (AID 489025); format: functional
[14] = system: Streptococcus sp. 'group A'; test: Streptococcus pyogenes SK(-)GAS viability under kanamycin – luminescence, BacTiterGlo, confirmation, counter-screen for streptokinase expression inhibitor project, dose response (AID 1900); format: functional, organism-based
[15] = molecular target: T3, Voltage-gated N-type calcium channel alpha-1B subunit/Amyloid beta A4 precursor protein-binding family A member 1 (Homo sapiens, UniProt Q00975+Q02410); format: protein assay
[16] = molecular target: Induced myeloid leukemia cell differentiation protein Mcl-1 (Homo sapiens, UniProt Q07820); format: functional
[17] = molecular target: T3, Voltage-gated N-type calcium channel alpha-1B subunit/Amyloid beta A4 precursor protein-binding family A member 1; format: protein assay; remark: listed apart in the source
[18] = NIH-3T3 fibroblast cytotoxicity, dose response, cytotoxicity control, cell-based, fluorescence, Alamar Blue, secondary assay (AID 2327); format: functional;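 note: NIH-3T3 mouse fibroblasts cultured with fluconazole at 8 µg/mL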
[19] = fluconazole-exposed Candida albicans growth modulators – fluorescence, retest, confirmation (AID 2467); format: functional, cell-based
[20] = molecular target: T4, Adenosylmethionine-8-amino-7-oxononanoate aminotransferase (Mycobacterium tuberculosis, UniProt P9WQ81); test: Mycobacterium tuberculosis BioA enzyme inhibitor Measured in Biochemical System Using Plate Reader - 2163-02_Inhibitor_Dose_CherryPick_Activity.; format: functional, Mycobacterium tuberculosis UT205
T4 sequence (P9WQ81 whole entry): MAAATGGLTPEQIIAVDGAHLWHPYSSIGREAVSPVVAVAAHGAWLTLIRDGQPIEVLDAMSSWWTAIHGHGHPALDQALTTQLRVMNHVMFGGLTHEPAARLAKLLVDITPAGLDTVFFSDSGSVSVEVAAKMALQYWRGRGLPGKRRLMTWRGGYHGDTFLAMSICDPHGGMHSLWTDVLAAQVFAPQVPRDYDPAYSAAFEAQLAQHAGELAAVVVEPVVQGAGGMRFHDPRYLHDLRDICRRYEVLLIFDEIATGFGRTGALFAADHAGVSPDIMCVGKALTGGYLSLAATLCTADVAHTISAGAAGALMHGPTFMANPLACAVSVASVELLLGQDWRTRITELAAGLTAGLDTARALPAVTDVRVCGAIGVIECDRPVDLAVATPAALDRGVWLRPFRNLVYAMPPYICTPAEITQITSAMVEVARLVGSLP

[21] = HIV-1 Vif–A3G interaction blockers – biochemical, TR-FRET, GST-Vif 1-94, biotin-A3G peptide, dose response retest, primary screen (AID 1117319); format: functional;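 note: TR-FRET signal of purified GST-Vif binding a biotinylated A3G peptide; inhibitors lower the FRET signal by blocking Vif and A3G binding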
[22] = molecular target: Voltage-dependent T-type calcium channel subunit alpha-1H (Homo sapiens, UniProt O95180); format: functional;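 note: channel activity triggered by adding a high calcium stimulation buffer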
[23] = molecular target: Peroxisome proliferator-activated receptor gamma/Nuclear receptor coactivator 1 (Homo sapiens, UniProt P37231); format: functional;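 note: agonist potency as compounds enhance coactivator SRC-1 recruitment to PPARgamma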
Sequence of Peroxisome proliferator-activated receptor gamma/Nuclear receptor coactivator 1 (P37231 whole entry): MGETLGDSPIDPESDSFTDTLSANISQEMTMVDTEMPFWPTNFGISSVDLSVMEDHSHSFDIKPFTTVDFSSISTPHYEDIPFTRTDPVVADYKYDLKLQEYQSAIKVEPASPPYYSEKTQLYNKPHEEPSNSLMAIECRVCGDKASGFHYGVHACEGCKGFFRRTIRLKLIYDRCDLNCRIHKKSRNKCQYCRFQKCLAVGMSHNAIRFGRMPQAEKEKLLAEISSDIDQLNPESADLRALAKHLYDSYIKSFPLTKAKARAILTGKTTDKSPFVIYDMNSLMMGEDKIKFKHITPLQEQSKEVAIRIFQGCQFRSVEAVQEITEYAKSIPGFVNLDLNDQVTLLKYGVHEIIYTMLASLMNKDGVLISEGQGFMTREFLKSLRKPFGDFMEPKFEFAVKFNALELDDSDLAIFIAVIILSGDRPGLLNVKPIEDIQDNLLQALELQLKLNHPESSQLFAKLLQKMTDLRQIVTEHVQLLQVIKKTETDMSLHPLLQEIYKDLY
Sequence of Peroxisome proliferator-activated receptor gamma/Nuclear receptor coactivator 1 (Q15788 whole entry, further chain): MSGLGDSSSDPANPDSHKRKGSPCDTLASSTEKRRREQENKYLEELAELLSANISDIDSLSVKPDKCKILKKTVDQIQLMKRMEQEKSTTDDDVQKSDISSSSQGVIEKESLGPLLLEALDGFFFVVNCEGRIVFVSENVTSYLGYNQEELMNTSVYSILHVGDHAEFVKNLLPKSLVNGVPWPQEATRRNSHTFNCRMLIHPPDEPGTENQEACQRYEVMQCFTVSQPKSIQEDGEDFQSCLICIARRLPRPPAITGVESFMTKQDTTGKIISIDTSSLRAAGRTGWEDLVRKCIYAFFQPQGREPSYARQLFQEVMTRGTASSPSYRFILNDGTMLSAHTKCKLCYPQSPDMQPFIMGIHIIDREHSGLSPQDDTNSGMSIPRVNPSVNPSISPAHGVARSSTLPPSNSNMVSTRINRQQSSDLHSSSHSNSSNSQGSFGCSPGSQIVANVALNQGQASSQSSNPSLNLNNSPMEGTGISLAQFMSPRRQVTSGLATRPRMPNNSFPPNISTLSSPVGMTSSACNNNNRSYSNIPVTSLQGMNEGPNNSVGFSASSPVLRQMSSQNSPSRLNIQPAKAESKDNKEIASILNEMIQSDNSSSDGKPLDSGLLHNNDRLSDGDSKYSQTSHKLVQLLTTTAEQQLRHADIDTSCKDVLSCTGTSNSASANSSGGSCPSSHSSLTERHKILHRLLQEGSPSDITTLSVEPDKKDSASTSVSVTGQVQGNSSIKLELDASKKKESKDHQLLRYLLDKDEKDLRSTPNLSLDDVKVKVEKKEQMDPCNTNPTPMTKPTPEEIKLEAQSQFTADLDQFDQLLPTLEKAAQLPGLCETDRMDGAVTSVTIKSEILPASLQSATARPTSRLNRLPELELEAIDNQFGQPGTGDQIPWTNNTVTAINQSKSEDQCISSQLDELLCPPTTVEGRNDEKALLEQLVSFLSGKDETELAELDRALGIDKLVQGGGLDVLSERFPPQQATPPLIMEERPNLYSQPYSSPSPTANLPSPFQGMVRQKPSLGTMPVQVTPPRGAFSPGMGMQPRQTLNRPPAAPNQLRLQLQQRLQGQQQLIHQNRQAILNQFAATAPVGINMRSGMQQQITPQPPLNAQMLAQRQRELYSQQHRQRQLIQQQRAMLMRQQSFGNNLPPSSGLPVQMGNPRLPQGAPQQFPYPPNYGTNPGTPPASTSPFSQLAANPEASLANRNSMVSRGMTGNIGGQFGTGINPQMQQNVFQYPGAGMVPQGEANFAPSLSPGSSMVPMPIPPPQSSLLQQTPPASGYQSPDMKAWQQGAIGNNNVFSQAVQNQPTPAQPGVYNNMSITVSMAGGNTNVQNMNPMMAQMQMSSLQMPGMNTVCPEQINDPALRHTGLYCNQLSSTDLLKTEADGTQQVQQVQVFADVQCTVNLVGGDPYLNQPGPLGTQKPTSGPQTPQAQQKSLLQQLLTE

[24] = molecular target: Peroxisome proliferator-activated receptor gamma/Nuclear receptor coactivator 2 (Homo sapiens, UniProt P37231); format: functional;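 note: agonist potency for raising coactivator recruitment to the receptor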
[25] = molecular target: Peroxisome proliferator-activated receptor gamma/Nuclear receptor coactivator 3 (Homo sapiens, UniProt P37231); format: functional;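 note: agonist potency for raising coactivator recruitment to the receptor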
Sequence of Peroxisome proliferator-activated receptor gamma/Nuclear receptor coactivator 3 (P37231 whole entry): as the sequence (P37231 whole entry) above
Sequence of Peroxisome proliferator-activated receptor gamma/Nuclear receptor coactivator 3 (Q9Y6Q9 whole entry, further chain): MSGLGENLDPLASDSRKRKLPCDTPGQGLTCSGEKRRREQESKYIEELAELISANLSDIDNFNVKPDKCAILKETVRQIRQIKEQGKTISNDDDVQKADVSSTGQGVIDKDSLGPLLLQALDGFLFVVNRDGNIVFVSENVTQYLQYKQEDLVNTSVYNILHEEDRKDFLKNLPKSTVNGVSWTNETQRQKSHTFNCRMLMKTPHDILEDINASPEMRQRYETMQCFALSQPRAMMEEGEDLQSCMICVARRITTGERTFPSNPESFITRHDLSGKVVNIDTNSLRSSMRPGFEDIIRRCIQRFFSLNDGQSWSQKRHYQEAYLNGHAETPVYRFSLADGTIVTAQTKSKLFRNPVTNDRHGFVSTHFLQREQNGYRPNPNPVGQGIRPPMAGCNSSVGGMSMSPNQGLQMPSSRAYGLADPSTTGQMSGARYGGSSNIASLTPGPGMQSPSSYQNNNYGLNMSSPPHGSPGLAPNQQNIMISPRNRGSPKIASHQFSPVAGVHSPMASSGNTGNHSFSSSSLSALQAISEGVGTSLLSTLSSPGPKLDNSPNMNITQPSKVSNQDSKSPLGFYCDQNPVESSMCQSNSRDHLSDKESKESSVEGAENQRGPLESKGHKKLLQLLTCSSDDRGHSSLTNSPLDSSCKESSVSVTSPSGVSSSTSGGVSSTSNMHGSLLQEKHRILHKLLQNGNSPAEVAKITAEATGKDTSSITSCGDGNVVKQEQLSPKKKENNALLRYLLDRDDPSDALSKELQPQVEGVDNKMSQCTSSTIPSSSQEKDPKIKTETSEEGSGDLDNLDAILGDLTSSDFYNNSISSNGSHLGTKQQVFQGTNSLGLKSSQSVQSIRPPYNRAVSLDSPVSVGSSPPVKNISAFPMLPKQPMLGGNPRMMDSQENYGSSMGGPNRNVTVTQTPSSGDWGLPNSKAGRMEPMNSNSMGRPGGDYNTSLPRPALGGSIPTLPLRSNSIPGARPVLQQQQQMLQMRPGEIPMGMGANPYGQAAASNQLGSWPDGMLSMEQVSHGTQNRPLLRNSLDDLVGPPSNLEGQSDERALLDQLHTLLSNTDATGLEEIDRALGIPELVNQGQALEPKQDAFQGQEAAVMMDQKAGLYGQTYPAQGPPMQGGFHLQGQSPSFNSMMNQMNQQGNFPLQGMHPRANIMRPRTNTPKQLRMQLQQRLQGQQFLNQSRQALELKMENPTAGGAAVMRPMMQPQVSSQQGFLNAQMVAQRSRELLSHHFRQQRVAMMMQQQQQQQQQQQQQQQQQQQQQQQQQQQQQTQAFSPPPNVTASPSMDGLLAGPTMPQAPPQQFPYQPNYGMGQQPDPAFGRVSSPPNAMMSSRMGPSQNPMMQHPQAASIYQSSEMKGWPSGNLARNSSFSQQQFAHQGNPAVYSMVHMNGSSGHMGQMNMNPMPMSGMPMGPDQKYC

Nonstructural protein 1 = Nonstructural protein 1 (Influenza A virus, UniProt Q194T2); format: functional, Influenza A virus (A/California/07/2009(H1N1))
Cytochrome P450 2C9 = Cytochrome P450 2C9 (Homo sapiens, UniProt P11712)
HeLa = test: ATP-based viability loss in HeLa cells – cell-based, CellTiter-Glo luminescence, cherry-pick samples, cytotoxicity control for MITF activator project, dose response (AID 540259); format: functional; details: Homo sapiens

Sequence of Protein-tyrosine kinase 2-beta (Q14289 whole entry): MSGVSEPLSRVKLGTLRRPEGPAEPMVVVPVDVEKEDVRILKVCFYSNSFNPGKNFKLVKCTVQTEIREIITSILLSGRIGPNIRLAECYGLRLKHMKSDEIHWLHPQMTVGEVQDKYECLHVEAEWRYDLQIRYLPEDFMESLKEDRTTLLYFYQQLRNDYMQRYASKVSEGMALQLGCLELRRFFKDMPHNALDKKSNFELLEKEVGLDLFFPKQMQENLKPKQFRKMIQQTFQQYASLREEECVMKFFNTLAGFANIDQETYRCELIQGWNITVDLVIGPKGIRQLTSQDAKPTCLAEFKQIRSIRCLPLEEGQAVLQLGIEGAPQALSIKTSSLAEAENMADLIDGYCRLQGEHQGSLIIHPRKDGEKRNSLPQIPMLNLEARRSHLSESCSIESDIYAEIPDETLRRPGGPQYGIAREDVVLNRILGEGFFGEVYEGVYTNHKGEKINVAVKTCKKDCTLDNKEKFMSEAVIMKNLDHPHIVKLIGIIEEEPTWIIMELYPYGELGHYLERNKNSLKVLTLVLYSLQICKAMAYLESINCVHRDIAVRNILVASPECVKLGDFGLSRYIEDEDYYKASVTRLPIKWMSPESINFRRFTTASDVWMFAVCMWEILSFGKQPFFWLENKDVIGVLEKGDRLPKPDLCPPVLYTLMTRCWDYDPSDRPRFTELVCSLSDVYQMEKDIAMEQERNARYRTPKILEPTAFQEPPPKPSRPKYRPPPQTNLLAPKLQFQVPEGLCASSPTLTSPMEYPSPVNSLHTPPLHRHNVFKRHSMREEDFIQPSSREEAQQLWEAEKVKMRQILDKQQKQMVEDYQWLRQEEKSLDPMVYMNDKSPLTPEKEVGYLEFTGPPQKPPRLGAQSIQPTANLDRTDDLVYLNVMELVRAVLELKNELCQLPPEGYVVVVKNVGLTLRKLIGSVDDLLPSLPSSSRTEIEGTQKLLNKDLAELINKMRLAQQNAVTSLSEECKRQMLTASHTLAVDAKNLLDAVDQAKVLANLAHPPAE

## Cc1ccc2nsnc2c1S(=O)(=O)Nc1cccc2nsnc12
[1]
  IC50: 6.7 µM (active)

## Clc1cccc2c3c([nH]c12)CCNC3
[2]
  IC50: 22.1 µM (inactive)
[3]
  EC50: 1.36 µM (active)
Cells [4]
  IC50: > 29.9 µM (inactive)
Cells [5]
  EC50: > 29.9 µM (inactive)

## O=C1CN(S(=O)(=O)Cc2ccccc2)C[C@@H]2[C@@H](c3ccc(C#CC4CC4)cc3)[C@@H](CO)N12
[6]
  AC50: 53.1 µM (active)
Paired box protein Pax-8
  AC50: 4.66 µM (active)
[7]
  AC50: 5.98 µM (active)
[8]
  AC50: 61 µM (active)

## CCCCCC(=O)NC(N=C(S)NC1CCS(=O)(=O)C1)C(Cl)(Cl)Cl (stereo not drawn)
[9]
  IC50: > 64 µM (inactive)

## COc1ccc(C(=O)NCc2ccc(Cl)cc2)cc1S(=O)(=O)N1CCCC1
[10]
  AC50: 4.67 µM (active)

## Cc1cc(Nc2ccccc2)n(-c2nc3ccccc3[nH]2)n1
Streptococcus
  EC50: 5.5 µM (active)
[11]
  CC50: 18.8 µM (active)
Cells [12]
  IC50: 1.07 µM (active)
[13]
  CC50: 38 µM (active)
[14]
  EC50: 2.16 µM (active)

## CCC1=NNc2cccc3c(OC)ccc1c23
[15]
  IC50: 586 nM (active)
[1]
  IC50: 2.15 µM (active)
[16]
  IC50: 8.79 µM (not active)
[17]
  IC50: 521 nM (active)

## Cc1oc(-c2ccccc2Cl)nc1CS(=O)(=O)CC(=O)NCCc1ccccc1
[2]
  IC50: 8.19 µM (active)
[3]
  EC50: 2.9 µM (active)
Cells [4]
  IC50: 18.3 µM (inactive)
Cells [5]
  EC50: > 29.9 µM (inactive)

## CCOC(=O)CNC(=O)c1sc2ncnc(N3CCc4ccccc4C3)c2c1C
[18]
  EC50: > 150 µM (inactive)
[1]
  IC50: 41.7 µM (not active)
[19]
  EC50: 3.42 µM (active)
[20]
  AC50: 4.06 µM (active)

## O=C(Nc1ccc2c(c1)OCCO2)C1CCC1
[21]
  IC50: > 100 µM (active)

## CN(CCc1ccccc1)C(C(=O)c1ccc2c(c1)OCO2)c1nnnn1-c1ccccc1NC(=O)OC(C)(C)C (stereo not drawn)
[2]
  IC50: 3.26 µM (active)
[3]
  EC50: 0.881 µM (active)
Cells [4]
  IC50: > 29.9 µM (inactive)
Cells [5]
  EC50: > 29.9 µM (inactive)

## O=C(CSc1nnc(CNc2ccccc2)o1)N1CCc2ccccc21
[9]
  IC50: > 64 µM (inactive)

## C[C@@H]1CN([C@@H](C)CO)C(=O)Cc2cc(NC(=O)CCC(F)(F)F)ccc2O[C@H]1CN(C)Cc1ccc(Oc2ccccc2)cc1
Paired box protein Pax-8
  AC50: 10.6 µM (active)
[7]
  AC50: 26.4 µM (active)
[8]
  AC50: 41.7 µM (active)

## CCCCn1nnc(NC(=O)c2ccc(-c3cccc(Cl)c3)o2)n1
[22]
  EC50: 4.23 µM (active)
[21]
  IC50: > 100 µM (active)

## O=C(O)c1cccc(NCc2ccncc2)c1
[21]
  IC50: > 100 µM (active)

## Nc1sc2c(c1C(=O)NCCc1ccccc1)CCC2
[2]
  IC50: 9.93 µM (active)
[3]
  EC50: 3.36 µM (active)
Cells [4]
  IC50: > 29.9 µM (inactive)
Cells [5]
  EC50: > 29.9 µM (inactive)

## CC(C)CCNC(=O)NC(=O)COC(=O)/C=C/c1cnc2ccccc2n1
[23]
  EC50: 49.5 µM (not active)
[24]
  EC50: 32 µM (not active)
[25]
  EC50: 35.9 µM (not active)

## Cc1ccccc1NC(=O)Cn1nnc2c(cnn2-c2ccc(F)cc2)c1=O
[9]
  IC50: > 64 µM (inactive)

## Cc1ccc2c(c1)C1CN(C)CCC1N2S(=O)(=O)c1ccc(Oc2ccc([N+](=O)[O-])cc2)cc1 (stereo not drawn)
Nonstructural protein 1
  IC50: > 100 µM (active)

## O=C(Nc1ccc(N2CCCCC2)cc1)c1cncc(Br)c1
Cytochrome P450 2C9
  AC50: 14.1 µM (inconclusive)
[23]
  EC50: > 79.4 µM (not active)
HeLa
  AC50: 50.2 µM (active)
[24]
  EC50: > 79.4 µM (not active)
[25]
  EC50: > 79.4 µM (not active)

## CN1CCC(O)(c2cccs2)C(C(=O)c2cccs2)C1 (stereo not drawn)
[11]
  CC50: > 20 µM (active)
Cells [12]
  IC50: 15.4 µM (active)

## CC(C)(C)c1ccc(-c2nc(C#N)c(NCCCn3ccnc3)o2)cc1
[11]
  CC50: > 20 µM (active)
Cells [12]
  IC50: 25.4 µM (active)
